Values quoted from earlier work in US8956669B2, “Anticancer and antimicrobial compounds from antarctic extremophilic microorgansims” (priority 2009, dated 2015).
Marks after values point to notes of the source that are not given here.

What was measured:
[1] = tested on: Mycobacterium smegmatis; conditions: literature values, Table 2
[2] = tested on: Mycobacterium tuberculosis; conditions: literature values, Table 2

Compound	MIC against Mycobacterium smegmatis [1]	MIC against Mycobacterium tuberculosis [2]
O=C(O)c1cn(C2CC2)c2cc(N3CCNCC3)c(F)cc2c1=O [Ciprofloxacin]	1^c μg/ml	0.5^g μg/ml
O=c1c(O)c(-c2cc(O)c(O)c(O)c2)oc2cc(O)cc(O)c12 [Myricetin]	32^a μg/ml	
Cc1cc(O)c2c(c1)C(=O)C(c1c(C)cc3c(c1O)C(=O)C=CC3=O)=CC2=O [Diospyrin]	100^j μg/ml	100^j μg/ml
Cc1cc(O)c2c(c1)C(=O)c1c(oc3c1c(=O)oc1cccc(C)c13)C2=O [crassiflorone]	1.22^l μg/ml	39.06^l μg/ml
COc1ccc(CCN(C)CCCC(C#N)(c2ccc(OC)c(OC)c2)C(C)C)cc1OC (stereo not drawn) [Verapamil]	256^a μg/ml	
O=C(O)[C@H]1O[C@@H](Oc2cc3oc(-c4ccccc4)cc(=O)c3c(O)c2O)[C@H](O)[C@@H](O)[C@@H]1O [Baicalin]	256^a μg/ml	
O=c1cc(-c2ccc(O)c(O)c2)oc2cc(O)cc(O)c12 [Luteolin]	32^a μg/ml	200^d μg/ml
COc1ccc(-c2coc3cc(O)cc(O)c3c2=O)cc1 [Biochanin A]	256^a μg/ml	
Laburnetin		4.88^e μg/ml
O=c1cc(-c2ccccc2)oc2cc(O)c(O)c(O)c12 [Baicalein]	64^a μg/ml	
O=c1c(-c2ccc(O)cc2)coc2cc(O)ccc12 [Daidzein]	256^a μg/ml	
COC(=O)[C@H]1[C@H]2C[C@@H]3c4[nH]c5cc(OC)ccc5c4CCN3C[C@H]2C[C@@H](OC(=O)c2cc(OC)c(OC)c(OC)c2)[C@@H]1OC [Reserpine]	128^a μg/ml	
Diospyrone	1.22^l μg/ml	39.06^l μg/ml
O=c1c(-c2ccc(O)cc2)coc2cc(O)cc(O)c12 [Genistein]	256^a μg/ml	
NNC(=O)c1ccncc1 [Isoniazid]	5^b μg/ml	0.1^f μg/ml
CO[C@H]1/C=C/O[C@@]2(C)Oc3c(C)c(O)c4c(O)c(c(/C=N/N5CCN(C)CC5)c(O)c4c3C2=O)NC(=O)/C(C)=C\C=C\[C@H](C)[C@H](O)[C@@H](C)[C@@H](O)[C@@H](C)[C@H](OC(C)=O)[C@@H]1C [Rifampcin]	1^b μg/ml	0.1^f μg/ml
C=CCS[S+]([O-])CC=C (stereo not drawn) [Allicin]		25^k μg/ml
O=c1cc(-c2ccccc2O)oc2cc(O)cc(O)c12 [5,7,2′-trihydroxyflavone]	31^h μg/ml	10^h μg/ml
Oc1ccc(C=Cc2cc(O)cc(O)c2)cc1 [Resveratrol]	64^a μg/ml	
CN(C)CCCN1c2ccccc2Sc2ccc(Cl)cc21 [Chlorpromazine]	64^a μg/ml	
CC1=CC(=O)c2c(O)cccc2C1=O [plumbagin]	1.22^l μg/ml	39.06^l μg/ml
